Laboratory results: US20250082633A1, “COMPOUNDS AND METHODS FOR MODULATING SPLICING” (REMIX THERAPEUTICS INC., priority 2021, published 2025)
Where a name gives a salt, the structure may show the parent alone. Read-outs that look alike come from different tables or passages of the source.

Assays:
[1] = system: HiBiT-tagged MYB protein in K562 cells; test: HiBit protein abundance assay, MYB; format: cell-based, human; conditions: K562 HiBiT-modified cells, 24 hours, luminescence
Method: Compounds described herein were used to screen for effects on quantitative protein abundance using a HiBit assay system (Promega). Quantitative protein abundance was determined by measuring the protein levels of HiBit-tagged protein targets expressed in cell culture via luminescence using the Nano-Glo HiBiT Lytic Detection System, which uses a split complementation assay format to reconstitute NanoBiT enzyme to generate a luminescent signal. A protein abundance assay was developed such that endogenous protein targets could be modified with the HiBiT peptide tag and their abundance could be assessed after compound treatment. Briefly, K562 cell lines containing a HiBiT-modification were treated with various compounds described herein (e.g., compounds of Formulas (I), (II), or (III)). After treatment for 24 hours, the protein abundance of a specific target was determined by measuring luminescence. • Promega Nano-Glo HiBiT Lytic Detection System (cat #N3030) • Corning 384-well TC-treated microplates (cat #3570) • Synthego Engineered Cells Knock-In Clones [table] Cells were maintained in IMDM with 10% FBS. Before the assay, cells were diluted with phenolphthalein-free growth media (IMDM+1% FBS media) and were seeded in a 384-well plate at a density of 10000 cells/well (for each cell line listed in Table 6). Each compound was prepared as a 10-point 3-fold serial dilution in DMSO with the top dose at a final concentration of 10 μM in the well. Unmodified K562 cells were added at the previously specified density with DMSO to serve as an assay baseline and positive control (PC) and DMSO only with the respective modified cell lines was added to the negative control (NC) columns. Final DMSO concentration was kept at or below 0.25%. Treated cell plates were placed in an incubator at 37° C. with 5% CO2 for 24 hours. After 24 hours, 25 μL of Complete HiBit Lytic reagent was added to each well at room temperature (e.g. one plate requiring 10 mL Lytic Buffer, 100 μL LgBiT Protein, 200 μL Lytic Substrate), shaken for 5 minutes at 600 RPM, then left to sit for 10 minutes for signal to stabilize before reading on a Spark Cyto plate reader (Tecan) with a 500 ms measurement time. To determine compound effects on protein abundance of each target in Table 6, the percent response for each respective cell line was calculated at each compound concentration as follows: For the normalized response at each concentration, a four-parameter logistical regression was fit to the data and the response was interpolated at the 50% value to determine a concentration for protein abundance at 50% (IC50) the untreated control.

Target C = test: RT-qPCR splicing assay, gene panel, Target C canonical junction (CJ) mRNA; format: cell-based; conditions: Homo sapiens, read-out: Target C CJ IC50
How it was run: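 A673 (DMEM/10% FBS) or K562 (IMDM/10% FBS) cells were treated 24 h at 37 °C with an 11-point 3-fold dilution series, top final 10 uM, DMSO ≤0.25%. Lysates underwent one-step RT-qPCR for the canonical-junction isoform with GAPDH, GUSB or PPIA as housekeeper. ΔΔCt versus DMSO was converted to RQ (2^−ΔΔCt), then to percent response.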

[2] = decrease in CJ mRNA levels, larger panel of genes, Table 3

| Structure (SMILES) | IC50 [1] [nM] | IC50 (Target C; [2]) [nM] | IC50 (Target C) [nM] |
| --- | --- | --- | --- |
| Cc1nc2ccc(-c3cc(F)c4nn(C5CCNCC5)cc4c3)cc2o1 [Compound 135, 6-[7-fluoro-2-(4-piperidyl)indazol-5-yl]-2-methyl-1,3-benzoxazole] | 100 to 1000 | 100 to 1000 | – |
| Cc1cc(-n2cc3cc(N4CCNCC4)ccc3n2)cc2cn(C)nc12 [Compound 121, 2,7-dimethyl-5-(5-piperazin-1-ylindazol-2-yl)indazole] | > 10000 | > 10000 | – |
| Cc1cn2nc(-c3cc(O)c4nn(C5CCNCC5)cc4c3)cc(C)c2n1 [Compound 156, 5-(2,8-dimethylimidazo[1,2-b]pyridazin-6-yl)-2-(piperidin-4-yl)-2H-indazol-7-ol] | 1000 to 10000 | 1000 to 10000 | – |
| Cc1cn2cc(-c3cc(F)c4nn(C5CCNCC5)cc4c3)cc(Cl)c2n1 [Compound 127, 5-(8-chloro-2-methylimidazo[1,2-a]pyridin-6-yl)-7-fluoro-2-(piperidin-4-yl)-2H-indazole hydrochloride salt] | 100 to 1000 | 100 to 1000 | – |
| Cc1c(O)c(-c2ccc3nn(C4CCNCC4)nc3n2)cc2cn(C)nc12 [Compound 113, 2,7-dimethyl-5-[2-(4-piperidyl)triazolo[4,5-b]pyridin-5-yl]indazol-6-ol] | 1000 to 10000 | > 10000 | – |
| COC1=C(C)C2N=C(C)OC2C=C1c1cc(F)c2nn(C3CCNCC3)cc2n1 (stereo not shown) [Compound 144] | 1000 to 10000 | > 10000 | – |
| Cn1cc2cc(-c3cc(F)c4nn(C5CCNCC5)nc4c3)cc(F)c2n1 [Compound 103, 4-fluoro-6-(7-fluoro-2-methyl-indazol-5-yl)-2-(4-piperidyl) benzotriazole] | 1000 to 10000 | 1000 to 10000 | – |
| Cc1cc(-n2cc3cc(C4CCNCC4)cc(F)c3n2)cc2cn(C)nc12 [Compound 115, 2-(2,7-dimethylindazol-5-yl)-7-fluoro-5-(4-piperidyl)indazole] | 1000 to 10000 | 1000 to 10000 | – |
| CCN1CCC(n2cc3cc(-c4cc(F)c5nn(C)cc5c4)cc(F)c3n2)CC1 [Compound 104, 2-(1-ethyl-4-piperidyl)-7-fluoro-5-(7-fluoro-2-methyl-indazol-5-yl)indazole] | 100 to 1000 | 1000 to 10000 | – |
| Cc1nc2c(C)cc(-n3cc4cc(N5CCNCC5)cc(F)c4n3)cc2o1 [Compound 119, 6-(7-fluoro-5-piperazin-1-yl-indazol-2-yl)-2,4-dimethyl-1,3-benzoxazole] | 1000 to 10000 | > 10000 | – |
| Cc1nc2c(C)c(O)c(-c3cc(F)c4nn(C5CCNCC5)cc4c3)cc2o1 [Compound 123, 6-[7-fluoro-2-(4-piperidyl)indazol-5-yl]-2,4-dimethyl-1,3-benzoxazol-5-ol] | 1000 to 10000 | 1000 to 10000 | – |
| Cc1cn2cc(-c3cc(F)c4nn(C5CCNCC5)cc4c3)cc(F)c2n1 [Compound 129, 7-fluoro-5-(8-fluoro-2-methylimidazo[1,2-a]pyridin-6-yl)-2-(piperidin-4-yl)-2H-indazole] | 100 to 1000 | 100 to 1000 | – |
| Cc1cn2nc(-c3cc(F)c4nn(C5CCN(C6CCC6)CC5)cc4c3)cc(C)c2n1 [Compound 151, 6-[2-(1-cyclobutyl-4-piperidyl)-7-fluoro-indazol-5-yl]-2,8-dimethyl-imidazo [1,2-b] pyridazine] | < 100 | – | < 100 |
| Fc1cc(-c2ccc3ncccc3c2)cc2cn(C3CCNCC3)nc12 [Compound 162, 6-[7-fluoro-2-(4-piperidyl)indazol-5-yl]quinoline] | 1000 to 10000 | > 10000 | – |
| Cn1cc2cc(-c3cc(F)c4nn(C5CCNCC5)cc4c3)ccc2n1 [Compound 145, 7-fluoro-5-(2-methylindazol-5-yl)-2-(4-piperidyl)indazole] | 100 to 1000 | 100 to 1000 | – |
| COc1cc(-c2cc(C)c3nc(C)cn3n2)cc2cn(C3CCNCC3)nc12 [Compound 155, 6-(7-methoxy-2-(piperidin-4-yl)-2H-indazol-5-yl)-2,8-dimethylimidazo [1,2-b]pyridazine] | 100 to 1000 | 100 to 1000 | – |

| Structure (SMILES) | IC50 [1] [nM] | IC50 (Target C; [2]) [nM] | IC50 (Target C) [nM] |
| --- | --- | --- | --- |
| Cc1cn2nc(-c3cc(F)c4nn(C5CCNC6(CC6)C5)cc4c3)cc(C)c2n1 (stereo not shown) [Compound 171, 6-[2-(4-azaspiro[2.5]octan-7-yl)-7-fluoro-indazol-5-yl]-2,8-dimethyl-imidazo[1,2-b]pyridazine] | 100 to 1000 | < 100 | – |
| Cn1cc2cc(-c3ccc4nn(C5CCNCC5)cc4n3)c(O)cc2n1 [Compound 110, 2-methyl-5-[2-(4-piperidyl)pyrazolo[4,3-b]pyridin-5-yl]indazol-6-ol] | 100 to 1000 | 1000 to 10000 | – |
| Cc1cn2nc(-c3cc(F)c4nn(CC5CCNCC5)cc4c3)cc(C)c2n1 [Compound 212, 6-[7-fluoro-2-(4-piperidylmethyl)indazol-5-yl]-2,8-dimethyl-imidazo[1,2-b]pyridazine] | 100 to 1000 | 100 to 1000 | – |
| Cc1cn2nc(-c3cc(F)c4nn(C5CCN(C6CCC6)C6(CC6)C5)cc4c3)cc(C)c2n1 (stereo not shown) [Compound 186, 6-[2-(4-cyclobutyl-4-azaspiro[2.5]octan-7-yl)-7-fluoro-indazol-5-yl]-2,8-dimethyl-imidazo[1,2-b]pyridazine] | 100 to 1000 | – | < 100 |
| Cn1cc2cc(-c3ccc4nn(C5CCNCC5)cc4c3)cc(F)c2n1 [Compound 105, 7-fluoro-2-methyl-5-[2-(4-piperidyl)indazol-5-yl]indazole] | 100 to 1000 | 100 to 1000 | – |
| Cc1cn2cc(-c3cc(F)c4nn(C5CCNCC5)cc4c3)nc(C)c2n1 [Compound 132, 6-[7-fluoro-2-(4-piperidyl)indazol-5-yl]-2,8-dimethyl-imidazo[1,2-a]pyrazine] | 1000 to 10000 | 1000 to 10000 | – |
| Cc1nc2ccc(-c3cc(F)c4nn(C5CCNCC5)cc4c3)cc2s1 [Compound 134, 6-(7-fluoro-2-(piperidin-4-yl)-2H-indazol-5-yl)-2-methylbenzo[d]thiazole] | 1000 to 10000 | > 10000 | – |
| Cc1ccc2nc(-c3cc(F)c4nn(C5CCNCC5)cc4c3)ccc2n1 [Compound 157, 2-[7-fluoro-2-(4-piperidyl)indazol-5-yl]-6-methyl-1,5-naphthyridine] | 1000 to 10000 | > 10000 | – |
| Cn1cc2cc(-c3ccc4cn(C5CCNCC5)nc4c3)cc(F)c2n1 [Compound 148, 7-fluoro-2-methyl-5-[2-(4-piperidyl)indazol-6-yl]indazole] | > 10000 | > 10000 | – |
| Cc1cn2nc(-c3cc(F)c4nn(C5CCNCC5F)cc4c3)cc(C)c2n1 (stereo not shown) [Compound 166, 6-[7-fluoro-2-(3-fluoro-4-piperidyl)indazol-5-yl]-2,8-dimethyl-imidazo [1,2-b]pyridazine] | 100 to 1000 | 100 to 1000 | – |
| Cc1cn2nc(-c3cc(F)c4nn(C5CCN(C)C6(CC6)C5)cc4c3)cc(C)c2n1 (stereo not shown) [Compound 174, 6-[7-fluoro-2-(4-methyl-4-azaspiro[2.5]octan-7-yl)indazol-5-yl]-2,8-dimethyl-imidazo[1,2-b]pyridazine] | 100 to 1000 | < 100 | – |
| Cc1c(O)c(-c2cc(F)c3nn(C4CCNCC4)cc3c2)cc2cn(C)nc12 [Compound 126, 5-[7-fluoro-2-(4-piperidyl)indazol-5-yl]-2,7-dimethyl-indazol-6-ol] | > 10000 | 1000 to 10000 | – |
| Cc1cn2nc(-c3cc(F)c4nn(C5CCN(CCO)C6(CC6)C5)cc4c3)cc(C)c2n1 (stereo not shown) [Compound 180, 2-[7-[5-(2,8-dimethylimidazo[1,2-b]pyridazin-6-yl)-7-fluoro-indazol-2-yl]-4-azaspiro[2.5]octan-4-yl]ethanol] | 100 to 1000 | – | 100 to 1000 |
| Cc1cn2nc(-c3cc4cn(C5CCNCC5)nc4c(OCc4ccccc4)n3)cc(C)c2n1 [Compound 153, 6-[7-benzyloxy-2-(4-piperidyl)pyrazolo [3,4-c]pyridin-5-yl]-2,8-dimethyl-imidazo[1,2-b]pyridazine] | 1000 to 10000 | > 10000 | – |
| Cc1cn2nc(-c3cc(F)c4nn([C@@H]5CCNC6(CC6)C5)cc4c3)cc(C)c2n1 [Compound 173] | 100 to 1000 | 100 to 1000 | – |
| Cc1cn2nc(-c3cc4cn(C5CCNCC5)nc4cc3O)cc(C)c2n1 [Compound 154, 5-(2,8-dimethylimidazo[1,2-b]pyridazin-6-yl)-2-(piperidin-4-yl)-2H-indazol-6-ol] | 100 to 1000 | 100 to 1000 | – |
